In patent US20110294794A1, “TREATMENT OF PROTEINOPATHIES USING A FARNESYL TRANSFERASE INHIBITOR” (Link Medicine Corporation, priority 2008, published 2011):
Entries after “also recorded” stand apart in the source; their conditions may differ.

Legend:
[1] = system: p70 S6 kinase (S6K); assay: p70S6K phosphorylation in SH-SY5Y cells; assay type: cell-based, human; conditions: FIG. 8f
[2] = system: TAU; assay: TAU441 transgenic mice, TAU immunoreactivity (AT180, HT7) in the amygdala; assay type: in vivo, mouse; conditions: 0.09 mg/kg once every 24 hours, three months
Method: Animals and treatments: Male and female human WT alpha-synuclein over-expressing transgenic mice^32 at 6 months of age were given vehicle (10% beta-cyclodextrin) or LNK-754-TS (0.09, 0.9 and 9 mg/kg) per oral gavage twice daily for 3 months or animals at 7 months of age were given vehicle (2.5% beta-cyclodextrin) or LNK-754-TS (2 mg/kg) once every three days for 3 months. Male and female TAU transgenic mice expressing TAU441 bearing the missense mutations V337M^50 and R406W under the control of the murine Thy-1 promoter with a CB6xC57BL/6 background were 5 months old at the time when the oral treatment for three months with LNK-754-TS (0.9 and 0.09 mg/kg) as well as vehicle (2.5% beta-cyclodextrin) was started. Female human APP/PS1 (APP (London V7171)/PS1(A246E)) over-expressing transgenic mice were treated with LNK-754-TS (0.9 mg/kg) or vehicle (2.5% beta-cyclodextrin) for 2 months or 12 days.
Immunohistochemistry and quantification of stained cells: For evaluation of α-synuclein immunoreactivity (IR), 5 sagittal cryo-cut sections (10 μm slice thickness) from five different layers were used for counting of IR cells in the cortex and hippocampus. […] IR positive cells were quantified using specialized image analysis software (Image Pro Plus, version 4.5.1.29). […] Images were evaluated with ImageProPlus (version 6.2) image analysis software. For APP/PS1 transgenic animals sagittal hemisections (40 μm) were collected and processed for Aβ immunohistochemistry using an 6E10 antibody, Thioflavin-S staining Primary antibodies were detected by the ABC method. […]
This study was designed to evaluate the effects of a treatment with LNK-754-TS dosed at 0.09 mg per kg on behavior, TAU and TAU-pT231 levels, and brain morphology of TAU441 Tg mice. Histological evaluations were performed to quantitatively evaluate TAU pathology. TAU depositions were determined using the monoclonal TAU-antibodies AT180 and HT7. […]

For `C#Cc1cccc(-c2cc(=O)n(C)c3ccc([C@](O)(c4ccc(Cl)cc4)c4cncn4C)cc23)c1` [LNK-754-TS, (R)-6-[(4-chlorophenyl)-hydroxyl-(1-methyl-1-H-imidazol-5-yl)-methyl]-4-(3-ethynylphenyl)-1-methyl-2-(1H)-quinonlinone (2S,3S)-dihydroxybutanedioate], the “decrease / inhibition of p70S6K phosphorylation” value [1] was “did not inhibit”, the “number of AT180 immunoreactive (affected) cells in the amygdala” value [2] was “comparable to those of baseline animals” and the “phosphorylated Tau (AT180) immunoreactivity in the amygdala vs. vehicle” value [2] was “significantly decreased; also recorded: significant reduction; also recorded: significantly reduced”. The “total Tau (HT7) immunoreactivity in the amygdala vs. vehicle” value [2] was “not significantly reduced; also recorded: did not change”.
